Data published in article PMC6446940 (ChemMedChem, 2018).
Like-named read-outs stand apart in the source and are kept apart here.

Experiments:
[1] = test system: HIV-1 Env pseudovirus 1054.TC4.1499; assay: Single-cycle assay TZM-bl, Env pseudovirus panel
[2] = test system: HIV-1 Env pseudovirus QA790.204I.ENV.C8; assay: Single-cycle assay TZM-bl, Env pseudovirus panel
[3] = test system: HIV-1 Env pseudovirus QA790.204I.ENV.E2; assay: Single-cycle assay TZM-bl, Env pseudovirus panel
[4] = test system: HIV-1 Env pseudovirus 9021_14.B2.4571; assay: Single-cycle assay TZM-bl, Env pseudovirus panel
[5] = test system: HIV-1 Env pseudovirus MI206.W0M.ENV.D1; assay: Single-cycle assay, Paired Infant and Maternal Env clones
[6] = test system: HIV-1 Env pseudovirus Q259ENV.W6; assay: Single-cycle assay TZM-bl, Env pseudovirus panel
[7] = test system: HIV-1 Env pseudovirus RHPA4259, clone 7; assay: Single-cycle assay TZM-bl, Env pseudovirus panel
[8] = test system: HIV-1 Env pseudovirus QF495.23M.ENV.A3; assay: Single-cycle assay TZM-bl, Env pseudovirus panel
[9] = test system: HIV-1 Env pseudovirus MG505.W0M.ENV.A2; assay: Single-cycle assay, Paired Infant and Maternal Env clones
[10] = test system: HIV-1 Env pseudovirus QA790.204I.ENV.A4; assay: Single-cycle assay TZM-bl, Env pseudovirus panel
[11] = test system: HIV-1 Env pseudovirus CRF02_AG, clone 257; assay: Single-cycle assay TZM-bl, Env pseudovirus panel
[12] = test system: HIV-1 Env pseudovirus HIV-25711-2, clone 4; assay: Single-cycle assay TZM-bl, Env pseudovirus panel
[13] = test system: HIV-1 Env pseudovirus QG393.60M.ENV.B7; assay: Single-cycle assay TZM-bl, Env pseudovirus panel
[14] = test system: HIV-1 Env pseudovirus HIV-00836-2, clone 5; assay: Single-cycle assay TZM-bl, Env pseudovirus panel
[15] = molecular target: HIV-1 Reverse Transcriptase (RT) (Human immunodeficiency virus type 1 group M subtype B, UniProt P04585); assay: biochemical; format: biochemical
[16] = test system: HIV-1 Env pseudovirus PVO, clone 4; assay: Single-cycle assay TZM-bl, Env pseudovirus panel
[17] = test system: HIV-1 Env pseudovirus QB726.70M.ENV.C4; assay: Single-cycle assay TZM-bl, Env pseudovirus panel
[18] = test system: HIV-1 Env pseudovirus QA013.70I.ENV.H1; assay: Single-cycle assay TZM-bl, Env pseudovirus panel
[19] = test system: HIV-1 Env pseudovirus CAP210.2.00.E8; assay: Single-cycle assay TZM-bl, Env pseudovirus panel
[20] = test system: HIV-1 panel of Paired Infant (B) and Maternal (M) Env Molecular Clones; assay: Single-cycle assay, means over Paired Infant and Maternal Env clones
[21] = test system: HIV-1 Env pseudovirus WEAUd15.410.5017; assay: Single-cycle assay TZM-bl, Env pseudovirus panel
[22] = test system: HIV-1 Env pseudovirus BG505-T332N; assay: Single-cycle assay TZM-bl, Env pseudovirus panel
[23] = test system: HIV-1 Env pseudovirus BG505.W6M.ENV.C2; assay: Single-cycle assay, Paired Infant and Maternal Env clones
[24] = test system: control pseudovirus VSV-G; assay: microbe, parasite or virus in culture; format: cell-based
[25] = test system: HIV-1 Env pseudovirus ZM109F.PB4; assay: Single-cycle assay TZM-bl, Env pseudovirus panel
[26] = test system: HIV-1 Env pseudovirus BK184.W6M.ENV.D2; assay: Single-cycle assay, Paired Infant and Maternal Env clones
[27] = test system: HIV-1 Env pseudovirus CRF02_AG, clone 33; assay: Single-cycle assay TZM-bl, Env pseudovirus panel
[28] = test system: HIV-1 Env pseudovirus MK184.W0M.ENV.E4; assay: Single-cycle assay, Paired Infant and Maternal Env clones
[29] = test system: HIV-1 Env pseudovirus CRF02_AG, clone 253; assay: Single-cycle assay TZM-bl, Env pseudovirus panel
[30] = test system: HIV-1 Env pseudovirus QD435.100M.ENV.E1; assay: Single-cycle assay TZM-bl, Env pseudovirus panel
Cytotoxicity [31] = format: cell-based, human; conditions: human, freshly isolated and stimulated uninfected PBMC
Cytotoxicity [32] = format: cell-based; conditions: human, U87-CD4-CCR5 cells
[33] = test system: HIV-1 Env pseudovirus HIV-25925-2, clone 22; assay: Single-cycle assay TZM-bl, Env pseudovirus panel
[34] = test system: HIV-1 Env pseudovirus B1206.W6P.ENV.A1A; assay: Single-cycle assay, Paired Infant and Maternal Env clones

Compound `Cc1nc([C@@H](CN)NC(=O)c2ccc(-c3ccc(F)c(F)c3)[nH]2)sc1CO` (single isomer, unassigned) [NBD-14113, reference compound] has an IC50 ([1]; subtype B, NIH # 11561, 1054.TC4.1499, TZM-bl cells) of 3.6 ± 0.2 µM, an IC50 ([2]; subtype A1/D, NIH # 11903, QA790.204I.ENV.C8, TZM-bl cells) of 4.3 ± 0.1 µM and an IC50 ([3]; subtype A1/D, NIH # 11904, QA790.204I.ENV.E2, TZM-bl cells) of 3 ± 0.1 µM. The IC50 ([4]; subtype B, NIH # 11572, 9021_14.B2.4571, TZM-bl cells) was 3.2 ± 0.2 µM, the IC50 ([5]; subtype A, NIH # 11531-M (maternal), MI206.W0M.ENV.D1) was 3.4 ± 0.2 µM and the IC50 ([6]; subtype A, NIH # 11887, Q259ENV.W6, TZM-bl cells) was 2.1 ± 0.3 µM. The IC50 ([7]; subtype B, NIH # 11036, RHPA4259, clone 7, TZM-bl cells) was 3.7 ± 0.4 µM, the IC50 ([8]; subtype A, NIH # 11891, QF495.23M.ENV.A3, TZM-bl cells) was 4 ± 0.2 µM and the IC50 ([9]; subtype A, NIH # 11528-M (maternal), MG505.W0M.ENV.A2) was 4.7 ± 0.8 µM. For the same compound, the IC50 ([10]; subtype A1/D, NIH # 11901, QA790.204I.ENV.A4, TZM-bl cells) was 5.5 ± 0.3 µM, the IC50 ([11]; subtype AG, NIH # 11599, CRF02_AG, clone 257, TZM-bl cells) was 4.6 ± 0.5 µM and the IC50 ([12]; subtype C, NIH # 11506, HIV-25711-2, clone 4, TZM-bl cells) was 4.7 ± 0.4 µM. The IC50 ([13]; subtype A2/D, NIH # 11906, QG393.60M.ENV.B7, TZM-bl cells) was 5.9 ± 0.1 µM, the IC50 ([14]; subtype C, NIH # 11500, HIV-00836-2, clone 5, TZM-bl cells) was 4.3 ± 0.4 µM and the IC50 ([15]; HIV-1 Reverse Transcriptase, mean ± SD, n=3) was 45.9 ± 3.6 µM. The IC50 ([16]; subtype B, NIH # 11022, PVO, clone 4, TZM-bl cells) was 4 ± 0.3 µM, the IC50 ([17]; subtype A, NIH # 11888, QB726.70M.ENV.C4, TZM-bl cells) was 4 ± 0.2 µM and the IC50 ([18]; subtype D, NIH # 11911, QA013.70I.ENV.H1, TZM-bl cells) was 3.5 ± 0.1 µM. For the same compound, the IC50 ([19]; subtype C, NIH # 11317, CAP210.2.00.E8, TZM-bl cells) was 3.7 ± 0.1 µM, the IC50 ([20]; read-out: IC50 Mean ± SEM: Infant (B), mean over infant clones) was 4.3e-06 ± 5e-07 M and the IC50 ([20]; read-out: IC50 Mean ± SEM: Mother, mean over maternal clones) was 4e-06 ± 4e-07 M. For the same compound, the IC50 ([21]; subtype B, NIH # 11578, WEAUd15.410.5017, R5X4-tropic virus, TZM-bl cells) was 3.7 ± 0.3 µM, the IC50 ([22]; subtype A, BG505-T332N, TZM-bl cells) was 3.3 ± 0.2 µM and the IC50 ([23]; subtype A, NIH # 11518-B (infant), BG505.W6M.ENV.C2) was 4.4 ± 0.3 µM. The IC50 [24] was 26.3 ± 1.4 µM, the IC50 ([25]; subtype C, NIH # 11314, ZM109F.PB4, TZM-bl cells) was 1.9 ± 0.1 µM and the IC50 ([26]; subtype C/D, NIH # 11522-B (infant), BK184.W6M.ENV.D2) was 3.6 ± 0.2 µM. It also gave an IC50 ([27]; subtype AG, NIH # 11607, CRF02_AG, clone 33, TZM-bl cells) of 3.5 ± 0.2 µM and an IC50 ([28]; subtype C/D, NIH # 11536-M (maternal), MK184.W0M.ENV.E4) of 2.6 ± 0.3 µM.

Work on `Cc1nc(C(CN)NC(=O)c2ccc(-c3ccc4c(c3)OCO4)[nH]2)sc1CO` (centres unmarked) [NBD-14110, N-(2-amino-1-(5-(hydroxymethyl)-4-methylthiazol-2-yl)ethyl)-5-(benzo[d][1,3]dioxol-5-yl)-1H-pyrrole-2-carboxamide] yielded an IC50 [29] of 3.2 ± 0.2 µM, an IC50 ([1]; TZM-bl) of 4.2 ± 0.4 µM and an IC50 ([2]; TZM-bl) of 2.4 ± 0.2 µM. For the same compound, the IC50 ([3]; TZM-bl) was 1.5 ± 0.2 µM, the IC50 [30] was 5.9 ± 0.4 µM and the IC50 ([4]; TZM-bl) was 4.5 ± 0.5 µM. It also gave an IC50 [5] of 4.7 ± 0.2 µM, an IC50 ([6]; TZM-bl) of 1.9 ± 0.2 µM and an IC50 ([7]; TZM-bl) of 2.8 ± 0.3 µM. It also gave a CC50 at 7 days (Cytotoxicity [31]) of 62.8 ± 2.9 µM, a CC50 at 3 days (Cytotoxicity [32]) of over 100 µM and an IC50 ([8]; TZM-bl) of 3 ± 0.1 µM. It also gave an IC50 [9] of 6.1 ± 0.5 µM, an IC50 ([10]; TZM-bl) of 2.1 ± 0.6 µM and an IC50 ([11]; TZM-bl) of 5.4 ± 0.2 µM. For the same compound, the IC50 [33] was 4.7 ± 0.1 µM, the IC50 ([12]; TZM-bl) was 4.4 ± 0.4 µM and the IC50 ([13]; TZM-bl) was 5.2 ± 0.3 µM. It also gave an IC50 ([14]; TZM-bl) of 1.7 ± 0.1 µM, an IC50 [15] of 30.6 ± 2.7 µM and an IC50 ([16]; TZM-bl) of 1.4 ± 0.3 µM. It also gave an IC50 ([17]; TZM-bl) of 3.7 ± 0.3 µM, an IC50 ([18]; TZM-bl) of 2.9 ± 0.3 µM and an IC50 ([19]; TZM-bl) of 5.5 ± 0.4 µM. The IC50 [34] was 5.6 ± 0.2 µM, the IC50 ([20]; Human immunodeficiency virus 1, read-out: IC50 Mean ± SEM: Infant (B)) was 4.8e-06 ± 8e-07 M and the IC50 ([20]; Human immunodeficiency virus 1, read-out: IC50 Mean ± SEM: Mother (M)) was 5.2e-06 ± 6e-07 M. It also gave an IC50 ([20]; Human immunodeficiency virus 1, read-out: IC50 Mean ± SEM: Overall (n=10)) of 5e-06 ± 5e-07 M, an IC50 ([21]; TZM-bl) of 1.6 ± 0.1 µM and an IC50 ([22]; TZM-bl) of 4.2 ± 0.5 µM. The IC50 [23] was 4.8 ± 0.3 µM, the IC50 ([24]; Pseudovirus, U87/CD4/CCR5) was 51.6 ± 4.4 µM and the IC50 ([25]; TZM-bl) was 4.9 ± 0.1 µM. The IC50 [26] was 3.7 ± 0.6 µM, the IC50 ([27]; TZM-bl) was 5 ± 0.3 µM and the IC50 [28] was 3.4 ± 0.2 µM.
